Structures are written as SMILES.

This assay deals with P. falciparum 3D7 growth, pLDH absorbance. Description: P. falciparum 3D7 growth inhibition, dose response, strain 3D7 (AID 2305).

What is called IC50 is the midpoint of a concentration-inhibition curve. The low end stands for inhibition by little substance, the high end for a need for much substance. Turning to `N#Cc1ccc(C=NNc2nc3ccccc3[nH]2)cc1`, the IC50 stood at 1000 nM.
The figure for `O=C(CCN(Cc1ccco1)c1nc(-c2ccc(F)cc2)nc2ccccc12)NC1CC1` is 1580 nM; for `COc1ccc(Cc2cnc3nc(N)nc(N)c3c2C)cc1OC` it is 10 nM; for `Clc1ccc(-c2ccc(C=NNc3nc(Nc4ccccc4)nc(Nc4ccccc4)n3)o2)cc1Cl` it is 740 nM.
Under `O=C(Nc1ccc(F)cc1F)NC1CCN(CCCCCNC(=O)[C@@H]2C[C@H]2c2ccc(Cl)c(Cl)c2)CC1` stands 500 nM.
Regarding `N#Cc1ccc(C(=O)Nc2cc(-c3cccc(O)c3)cc3[nH]ncc23)cc1`, the IC50 came to 1370 nM.
With `CC(=O)Nc1ccc(CN2CCC(N(C)c3ccc(NC(=O)c4cccc(C)c4)cc3)CC2)cc1`, the IC50 was determined as 990 nM.
The figure for `Cc1cc(C(=O)NC2CCN(Cc3ccccc3)CC2)ccc1-c1nc2ccc(C(F)(F)F)cc2[nH]1` is 890 nM; for `NC(N)=NCCCCN(Cc1ccccc1)c1ccccc1` it is 740 nM.
The figure for `CCn1c(-c2nonc2N)nc2cnc(Oc3cccc(NC(=O)c4ccc(OCCN(C(C)C)C(C)C)cc4)c3)cc21` is 780 nM.
`O=S(=O)(NCCN1CCCC1)c1ccc(-c2ccc(CNCc3ccsc3)cc2)cc1`: the IC50 was 850 nM.
In turn, `NC(N)=NC(=O)Nc1cc(F)c(Cl)c(Br)c1` yielded an IC50 of 990 nM.
For the compound `Fc1ccc2nccc(NN=CC=Cc3ccccc3)c2c1`, the IC50 was 680 nM.
For `Cc1cc(NCCc2ccc(O)cc2)nc(NCC(c2ccccc2)c2ccccc2)n1`, the IC50 came out at 320 nM.
On to `CC(Cc1ccc(OCC(=O)NCC2CCN(CCc3cccc(Cl)c3)CC2)cc1)NCCc1cccc(Cl)c1` (configuration not stated), for which the IC50 was 660 nM.
Compound `Cc1cc(N[C@@H](CC(C)C)C(=O)NCc2cccs2)nc(NCCc2ccccc2)n1` had an IC50 of 1190 nM.
The figure for `COc1ccc2nccc([C@@H](O)CN3CCC(NC(=O)c4ccc(CN5CCN(c6cccc(C)c6)CC5C)cc4)CC3)c2c1` (some centres not stated) is 210 nM; for `c1csc(-c2nc(N3CCCCC3)ncc2-c2ccsc2)n1` it is 140 nM.
Under `COc1ccc(NS(=O)(=O)c2ccc(C(=O)Nc3ccc(OC(F)(F)F)cc3)cc2)cc1N1CCN(CC2CC2)CC1` stands 1000 nM.
The figure for `CCCCCCN1CCC(NCc2cccc(C(F)(F)F)c2)CC1` is 250 nM; for `Cc1ccc(CNC(=O)[C@H](CCCN)Nc2cc(C)nc(Nc3ccccc3)n2)cc1` it is 1290 nM.
`CC1(C)Cc2c([nH]c3ccccc23)C(CCCCCCCCC2=NC(C)(C)Cc3c2[nH]c2ccccc32)=N1` returned an IC50 of 930 nM.
The figure for `COC(=O)c1cccc(CNCc2cccc(-c3ccc(-c4nc5ccccc5[nH]4)s3)c2)c1` is 490 nM; for `Nc1nc(N)c2c(Sc3ccccc3)cccc2n1` it is 650 nM.
The compound `COc1ccc(C)c(Nc2ccnc(Nc3cccc(-c4nc5ccccc5[nH]4)c3)n2)c1` had an IC50 of 720 nM.
The figure for `COc1cc2nc(N3CCC(CNC(=O)c4ccc(-c5ccc(C(=O)N(C)C)cc5)c(OCCO)c4)CC3)nc(N)c2cc1OC` is 730 nM.
Under `COc1ccc(NC(=O)c2ccc(OCCCCCCCOc3ccc(C(=O)Nc4ccc(OC)c(N5CCN(C)CC5)c4)cc3)cc2)cc1N1CCN(C)CC1` stands 600 nM; under `COc1ccc(CNC2CCN(C)CC2)cc1-c1ccc(S(=O)(=O)NCCc2ccccn2)cc1`, 1090 nM.
In turn, `COc1ccc(Br)cc1/C=C/C(=O)Nc1ccc(C2CCN(C)CC2)cc1` yielded an IC50 of 500 nM.
Under `N#Cc1ccc2c(c1)CCN(CCCn1c(-c3ccc4ccccc4c3)nc3ccncc31)CC2` stands 200 nM.
With `O=C(/C=C/c1ccc(Cl)c(Cl)c1)N1CCC(CN2CCC(Cc3cc4ccccc4[nH]3)CC2)CC1`, the IC50 turned out to be 630 nM.
The figure for `O=C(c1cccc(Cl)c1)N1CCN(c2ccc([N+](=O)[O-])c(NC3CC3)c2)CC1` is 870 nM; for `COc1ccc2nccc(N3CCC(SCCNCc4ccc5c(n4)NC(=O)CO5)C3)c2n1` (configuration not stated) it is 800 nM.
Under `Fc1cccc(COc2ccc(Nc3ncnc4sc(C#CCNC5CCC5)cc34)cc2Cl)c1` stands 870 nM; under `CCCCCCCN1CC[C@H](NC(=O)Nc2ccnc3ccc(OC)cc23)[C@H](CO)C1`, 180 nM.
Under `Cc1cc(CNCCCCCCNCc2cccc([N+](=O)[O-])c2)ccc1O` stands 720 nM; under `O=c1cc(NCCCNCc2cc3ccc(Br)cc3s2)[nH]c2ccccc12`, 990 nM.
Take `COc1cc(NCC(CN)Cc2ccc3c(c2)OCO3)nc2ccccc12` (configuration not stated): the IC50 came to 820 nM.
Regarding `CCOc1cc(C(=O)Nc2cccnc2)ccc1-c1nc2cc(Cl)c(Cl)cc2[nH]1`, the IC50 is 1010 nM.
The figure for `N#Cc1nc2ccc(OCCN(Cc3ccccc3C(F)(F)F)c3ccc(C#N)c(C(F)(F)F)c3)cc2s1` is 860 nM; for `COc1cccc(CN2CCCN(Cc3cccc(NC(=O)c4ccc(Cl)c(Cl)c4)c3)CC2)c1` it is 1460 nM; for `Fc1cc(Cl)ccc1Nc1ccnc2cc(-c3ccc(CN4CCCCC4)o3)ccc12` it is 340 nM.
For the compound `Cc1ccc(Nc2nccc(NCC(O)c3cccc(F)c3)n2)cc1` (configuration not stated), the IC50 was determined as 670 nM.
The figure for `Clc1ccc(-c2cc(-c3csc(NCCN4CCCCC4)n3)on2)cc1` is 990 nM; for `ON=C(c1nc2ccccc2[nH]1)c1nc2ccccc2[nH]1` it is 1090 nM; for `O=C(NCC1CCN(CCN2CCC(c3cn(CCO)c4ccccc34)CC2)CC1)c1ccc(-c2ccc(C(F)(F)F)cc2)cc1` it is 440 nM.
For the compound `COc1ccc2nc(C)cc(NN=Cc3cccc(F)c3)c2c1`, the IC50 was determined as 290 nM.
Under `COc1ccc2nccc(N3CCC(O)(CCNCc4ccc5c(n4)NC(=O)CS5)CC3)c2n1` stands 650 nM.
In turn, `CCN(CC)CCN(Cc1ccc(-c2ccc(C(F)(F)F)cc2)cc1)C(=O)Cn1c(CCc2cccc(F)c2F)cc(=O)c2c1CCCC2` yielded an IC50 of 870 nM.
The compound `c1ccc2c(CNCCCN3CCN(CCCNCc4c5ccccc5cc5ccccc45)CC3)c3ccccc3cc2c1` had an IC50 of 180 nM.
Under `Cc1cc(-c2nc3ccc(C(=N)N)cc3[nH]2)c(C)cc1-c1nc2ccc(C(=N)N)cc2[nH]1` stands 400 nM; under `CC(C)N1CCC(N(Cc2ccc(-c3ccc(C(F)(F)F)cc3)cc2)C(=O)Cn2c(SCc3cccc(F)c3F)cc(=O)c3ccccc32)CC1`, 820 nM; under `CCOC(=O)c1ccc(OCc2ccc(-c3ccccc3)cc2)cc1`, 810 nM.
Under `COc1ccc(-c2cnc3ccc(NCc4ccc(S(N)(=O)=O)cc4)nn23)cn1` stands 870 nM; under `COc1ccc(F)cc1-c1ccccc1CNC(=O)CN(C)S(=O)(=O)c1cc(C)cc(Cl)c1C`, 660 nM; under `COc1cc(OC)cc(C(=O)Nc2cccc(-c3cn4ccc(C)cc4n3)c2)c1`, 990 nM.
Under `CCN(CC)CCN(Cc1ccc(-c2ccc(C(F)(F)F)cc2)cc1)C(=O)c1c[nH]c2ccc(Br)cc12` stands 950 nM.
For `Cc1ccc(Sc2ccc(NC(=O)CN3CCN(C(=O)c4ccco4)CC3)cc2)cc1C`, the IC50 came out at 910 nM.
Regarding `Nc1cc(-c2cc3c(OCc4ccccc4)cccc3[nH]2)ccn1`, the IC50 stood at 1190 nM.
Compound `COc1ccc(Nc2nccc(NCC(O)c3cccc(C(F)(F)F)c3)n2)cc1` (configuration not stated) yielded an IC50 of 890 nM.
The figure for `NC1CCN(Cc2cccc(-c3csc(-c4nc5ccccc5[nH]4)c3)c2)C1` (configuration not stated) is 890 nM.
Regarding `Cc1ccc2nc(C)cc(Nc3ccccc3O)c2c1`, the IC50 was determined as 790 nM.
For `CCNC(=O)Nc1cccc(-c2cccc(-c3nc4ccc(C(F)(F)F)cc4[nH]3)c2)c1`, the IC50 worked out at 680 nM.
The compound `CCCc1cc(N2CCC(N(CC)CC)C2)nc(Nc2ccc(OC)cc2)n1` (configuration not stated) returned an IC50 of 170 nM.
The figure for `O=C(/C=C/c1ccc(Cl)c(Cl)c1)NCCCCN1CCCN(C(=O)Nc2ccc(Cl)c(Cl)c2)CC1` is 860 nM; for `CN(C)CCC1CCN(CCS(=O)(=O)c2cccc(Nc3ncc(-c4cccc(F)c4)cn3)c2)CC1` it is 1060 nM; for `COc1cc2c(cc1OC)CN(c1cc(N)c3cc(OC)c(OC)cc3n1)CC2` it is 550 nM.
Take `CC(C)C1C(O)=C(c2ccc3ccccc3c2)C(=O)N1Cc1ccsc1` (configuration not stated): the IC50 is 1070 nM.
The compound `CS(=O)(=O)Cc1cccc(Nc2ncc(Cl)c(Nc3cccnc3C(N)=O)n2)c1` gave an IC50 of 170 nM.
For the compound `CC(C)C(=O)Nc1c(F)cc(F)cc1CCc1ccc(O)cc1`, the IC50 is 500 nM.
`COc1cccc(CC(=O)N2CCC(n3c(C)nc4ccc(C)cc43)CC2)c1` had an IC50 of 110 nM.
The figure for `CC1CN(Cc2cccc(-c3ccc(-c4nc5ccccc5[nH]4)cc3)c2)CC(C)O1` (configuration not stated) is 860 nM.
For the compound `CCCc1ccccc1OCC(O)CN(C1CCCC1)C1CCCC1` (configuration not stated), the IC50 is 470 nM.
Under `COc1ccc2nc(C)cc(NN=Cc3ccncc3)c2c1` stands 700 nM; under `CCCCCN1CCCN(Cc2cccc(NC(=O)c3ccc4ccccc4c3)c2)CC1`, 1220 nM.
With `O=C(c1ccc(Cl)cc1)N1CCOC(CCN2CCC(c3ccccc3)CC2)(c2ccc(Cl)c(Cl)c2)C1` (configuration not stated), the IC50 came out at 240 nM.
As to `COc1ccc(CCNc2nc(NCCc3cnc[nH]3)nc(NCc3cccc4ccccc34)n2)cc1OC`, the IC50 came out at 540 nM.
Under `O=C(Nc1cn(-c2ccc(OCc3cccc(F)c3)c(Cl)c2)c2ncncc12)c1ccncc1` stands 170 nM; under `O=C(Nc1ccc(OC2CCN(Cc3ccsc3)C2)c(Cl)c1)c1ccc2ncccc2c1` (configuration not stated), 970 nM; under `CN(C)CCCOc1c(C(C)(C)C)cc(-c2cc(C(C)(C)C)c(OCCCN(C)C)c(C(C)(C)C)c2)cc1C(C)(C)C`, 270 nM.
The figure for `Oc1ccc(CCNc2nc(NCCOc3cccc4ccccc34)nc(N3CCNCC3)n2)cc1` is 900 nM; for `O=C(Nc1ccc(OC(F)(F)F)cc1)NC1CCN(c2ccnc3ccccc23)C1` (configuration not stated) it is 240 nM.
As for `CN(c1ccc2c(c1)nc(NCc1ccc(F)cc1)n2C)c1ccnc(Nc2ccc(CS(C)(=O)=O)cc2)n1`, the IC50 was 830 nM.
Under `Cc1cc(CNCCCCCNCc2cccc([N+](=O)[O-])c2)ccc1O` stands 780 nM; under `COc1ccc(CCN(C)CCCOc2ccc(NC(=O)COc3cccc4sc5ccccc5c(=O)c34)cc2)cc1OC`, 460 nM; under `O=C(N[C@@H](CC1CCCCC1)C(=O)NC1CCCc2ccccc21)c1ccc(O)c(-c2cccc([N+](=O)[O-])c2)c1` (some centres not stated), 610 nM.
With `Cc1ccn2c(C(=O)N3CCN(c4cccc5c4nc(-c4ccoc4)n5Cc4ccccn4)CC3)c(C)nc2c1`, the IC50 is 200 nM.

Values taken from PubChem BioAssay AID2305 (GlaxoSmithKline (GSK), 2010).
